32 sequences from the supplement of paper PMC11208160 can be followed below.

The nature of the series: recombinant barcode read abundance after kanamycin selection (control-corrected) (log10(CPM+1)); higher = more efficient recombination; sequences stand for … in AGTGCAGAGAAAATCGGCCAGTTTTCTCTGCCTGCAGTCCGCATGCCGT…AGATTTATGCAGCGGACTGCCTTTCTCCCAAAGTGATAAACCGGACAGTATCATGGACCGGTTTTCCCGGTAATCCGTATTTGCAAGGTTGGTTTCACT; site = the 11-nt target. In a few lines: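 Targets were screened in pooled form in E. coli against IS621 bridge RNA target-binding loops. Recombination efficiency is based on barcode counts at recombinant junctions in counts per million, averaged and corrected for the control. Numbers are shown as log10(CPM+1), with duplicate plates on chloramphenicol/ampicillin LB agar (control) or chloramphenicol/ampicillin/kanamycin with 0.1 mM IPTG.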
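Note: IS621 recombinase and bridge RNA in Escherichia coli cells.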

For the sequence “CCAGGAGCTTGGGTTCTAACCTGTTGCAG (site TCTGGAGCTCT)”, the “recombinant barcode read abundance (log10)” value amounted to 0.141.
Turning to “CCAGGGACTTGGGTTCTAACCTGTTGCCT (site CCAAGGACTAG)”, the “recombinant barcode read abundance (log10)” value is 0.683.
For “CCAGGGACTTGGGTTCTAACCTGTTGCCT (site CCACGGACTAG)”, the “recombinant barcode read abundance (log10)” value came out at 0.294.
Take “CCAGGGACTTGGGTTCTAACCTGTTGCCT (site CCAGGGACTAG)”: the “recombinant barcode read abundance (log10)” value was 1.31.
As for “CCAGGGACTTGGGTTCTAACCTGTTGCCT (site CCATGGACTAG)”, the figure is 0.0751; as for “CCAGTTACTTGGGTTCTAACCTGTTGCCT (site CCAGTAACTAG)”, 0.104.
For “CCAGTTACTTGGGTTCTAACCTGTTGCCT (site CCAGTCACTAG)”, the “recombinant barcode read abundance (log10)” value came to 0.132.
The figure for “CCAGTTACTTGGGTTCTAACCTGTTGCCT (site CCAGTGACTAG)” is 0.195.
As for “CCAGTTACTTGGGTTCTAACCTGTTGCCT (site CCAGTTACTAG)”, the figure is 0.351; as for “CCATACCCTTGGGTTCTAACCTGTTGCTA (site ATCATAGCTGC)”, 0.019; as for “CCATACCCTTGGGTTCTAACCTGTTGCTA (site CCATACCCTTA)”, 0.884.
“CCATAGTCTTGGGTTCTAACCTGTTGCTT (site CCATAGTCTAA)”: the “recombinant barcode read abundance (log10)” value was 0.732.
Regarding “CCATAGTCTTGGGTTCTAACCTGTTGCTT (site GCACAGTCTAA)”, the “recombinant barcode read abundance (log10)” value was found to be 0.052.
For the sequence “CCATCCTCTTGGGTTCTAACCTGTTGCTT (site CAATCCTCTAA)”, the “recombinant barcode read abundance (log10)” value was 0.04.
On to “CCATCCTCTTGGGTTCTAACCTGTTGCTT (site CCATCCTCTAA)”, for which the “recombinant barcode read abundance (log10)” value came to 0.0749.
The figure for “CCATGGTCTTGGGTTCTAACCTGTTGCTT (site CCATACTCTAA)” is 0.01; for “CCATGGTCTTGGGTTCTAACCTGTTGCTT (site CCATGGTCTAA)” it is 1.78; for “CCGAATCCTTGGGTTCTAACCTGTTGCCT (site CCGAATCCTAG)” it is 0.355.
Consider “CCGAATCCTTGGGTTCTAACCTGTTGCCT (site CCGACTCCTAG)”, for which the “recombinant barcode read abundance (log10)” value was 0.361.
In the case of “CCGAATCCTTGGGTTCTAACCTGTTGCCT (site CCGAGTCCTAG)”, the “recombinant barcode read abundance (log10)” value came to 0.122.
For the sequence “CCGAATCCTTGGGTTCTAACCTGTTGCCT (site CCGATTCCTAG)”, the “recombinant barcode read abundance (log10)” value was determined as 0.199.
As for “CCGACTTCTTGGGTTCTAACCTGTTGCCT (site CAGACTTCTAG)”, the figure is 0.219.
As for “CCGACTTCTTGGGTTCTAACCTGTTGCCT (site CCGACTTCTAG)”, the figure is 0.164.
For “CCGACTTCTTGGGTTCTAACCTGTTGCCT (site CGGACTTCTAG)”, the “recombinant barcode read abundance (log10)” value was 0.244.
The figure for “CCGACTTCTTGGGTTCTAACCTGTTGCCT (site CTGACTTCTAG)” is 0.129; for “CCGAGAGCTTGGGTTCTAACCTGTTGCCT (site CAGAGAGCTAG)” it is 0.0908; for “CCGAGAGCTTGGGTTCTAACCTGTTGCCT (site CCGAGAGCTAG)” it is 0.454.
As to “CCGAGAGCTTGGGTTCTAACCTGTTGCCT (site CGGAGAGCTAG)”, the “recombinant barcode read abundance (log10)” value turned out to be 0.0785.
On to “CCGAGAGCTTGGGTTCTAACCTGTTGCCT (site CTGAGAGCTAG)”, for which the “recombinant barcode read abundance (log10)” value stood at 0.0419.
As for “CCGCATGCTTGGGTTCTAACCTGTTGCCT (site CCGAATGCTAG)”, the “recombinant barcode read abundance (log10)” value was 0.0372.
Consider “CCGCATGCTTGGGTTCTAACCTGTTGCCT (site CCGCATGCTAG)”, for which the “recombinant barcode read abundance (log10)” value was found to be 0.234.
As for “CCGCATGCTTGGGTTCTAACCTGTTGCCT (site CCGGATGCTAG)”, the figure is 0.0172.
